Results taken from paper PMC6943619, “Synthesis and Pharmacological Evaluation of Hybrids Targeting Opioid and Neurokinin Receptors” (Molecules, 2019).
Like-named read-outs stand apart in the source and are kept apart here. Where a SMILES comes first, the peptide text is derived from it. Bridges are numbered along the chain shown (N, C = ends). [ ]: non-standard residue; d: D form. Nle = CCCC[C@H](N)C(=O)O

Assays:
human NK1 [1] = molecular target: T1, human NK1 (Homo sapiens, UniProt P25103); assay: Calcium mobilization functional assay, agonist mode, CHONK1 cells; format: cell-based; design: expressed in transfected cells; host or cells: CHO cells (gift of Prof. T. Costa, ISS, Rome); settings: for NK1 α ± SEM: efficacy (intrinsic activity), Emax relative to SP
T1 sequence (P25103 whole entry): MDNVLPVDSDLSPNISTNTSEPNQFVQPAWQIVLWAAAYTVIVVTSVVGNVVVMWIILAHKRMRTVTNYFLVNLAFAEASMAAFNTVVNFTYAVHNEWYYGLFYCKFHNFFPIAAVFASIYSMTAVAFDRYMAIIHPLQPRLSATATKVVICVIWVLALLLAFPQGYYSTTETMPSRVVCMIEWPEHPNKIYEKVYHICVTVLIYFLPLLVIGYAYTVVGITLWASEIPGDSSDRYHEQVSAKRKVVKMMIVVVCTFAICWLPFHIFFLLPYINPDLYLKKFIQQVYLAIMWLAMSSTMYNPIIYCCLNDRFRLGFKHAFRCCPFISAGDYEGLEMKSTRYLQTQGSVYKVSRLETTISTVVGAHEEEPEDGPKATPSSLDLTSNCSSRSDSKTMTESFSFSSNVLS

[2] = molecular target: T2, human opioid receptor MOR (Homo sapiens, UniProt P35372); assay: Radioligand binding assay, displacement of [3H]DAMGO; settings: displacement of [3H]DAMGO from membranes of CHO cells transfected with human MOR, 50 mM Tris/HCl pH 7.4, 0.5% BSA, peptidase inhibitors, 2 h at 25 °C, mean ± SEM, n ≥ 3
T2 construct: purchased PerkinElmer (Krakow, Poland); host or cells: CHO cell membranes
T2 sequence (P35372 whole entry): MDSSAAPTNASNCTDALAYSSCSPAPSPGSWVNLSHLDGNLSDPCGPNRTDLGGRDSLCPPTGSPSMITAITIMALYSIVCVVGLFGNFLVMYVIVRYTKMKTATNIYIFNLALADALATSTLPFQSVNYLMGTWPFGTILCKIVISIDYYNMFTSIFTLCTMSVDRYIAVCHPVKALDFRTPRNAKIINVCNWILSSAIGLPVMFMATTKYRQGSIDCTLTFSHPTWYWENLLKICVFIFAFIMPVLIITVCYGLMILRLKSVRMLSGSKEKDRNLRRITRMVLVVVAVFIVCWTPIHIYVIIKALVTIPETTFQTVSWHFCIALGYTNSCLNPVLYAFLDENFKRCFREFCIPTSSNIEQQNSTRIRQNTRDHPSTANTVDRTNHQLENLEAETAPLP
Experimental: (§1) A radioligand binding assay was performed to determine the opioid receptor (OR) binding affinities of the novel analogs using commercially available membranes of Chinese hamster ovary cells (CHO) transfected with human recombinant ORs. [^3H]DAMGO, [^3H]deltorphin-2, and [^3H]U-69593 were used as the radioligands for MOR, DOR, and KOR, respectively. Tyr-[D-Lys-Phe-Phe-Asp]NH2 (1) was used as a reference opioid compound. […] None of them acquired significant DOR affinity.
(§2) To determine the affinity of peptide analogs to respective receptors, competition binding experiments were performed, as described in detail elsewhere.
(§3) Commercial membranes of CHO cells stably expressing either human ORs or NK1 receptor were used. [^3H]DAMGO, [^3H]deltorphin-2, and [^3H]U-69593 were employed as the competing radioligands for MOR, DOR, and KOR, respectively, while [^3H][Sar^9, Met(O2)^11]SP was utilized for the NK1 receptor. Membranes were incubated in a 0.5 mL volume of 50 mM Tris/HCl (pH = 7.4), 0.5% bovine serum albumin (BSA), with a number of peptidase inhibitors (bacitracin, bestatin, captopril) and various concentrations of radioligands for 2 h at 25 °C. Nonspecific binding was assessed in the presence of […] naloxone for ORs or SP for NK1 receptor.
(§4) The pharmacological terminology adopted in this paper is consistent with International Union of Basic and Clinical Pharmacology (IUPHAR) recommendations. Concentration–response curves were analyzed by nonlinear regression using Graph Pad Prism 6.0 (La Jolla, CA, USA). […]. […] Concentration–response curves were fitted with the four-parameter logistic nonlinear regression model (1) Effect=baseline+Emax−baseline/1+10^logEC50−X·n where X is the agonist concentration and n is the Hill coefficient. Ligand efficacy was expressed as intrinsic activity (α) calculated as a ratio of the peptide Emax to the Emax of the standard agonist (Supplementary Materials, Figure S7). […]. All statistical analyses were performed using Graph Pad Prism 6.0 (La Jolla, CA, USA). Differences between groups were analyzed with one-way ANOVA and a post hoc multiple comparison by the Student–Newman–Keuls test. A probability level of 0.05 or smaller was used to indicate statistical significance.

human MOR = molecular target: T3, human MOR (Homo sapiens, UniProt P35372); assay: Calcium mobilization functional assay, agonist mode; format: cell-based; settings: CHO cells co-expressing human MOR and Gαqi5, n = 5; for EC50: Fluo-4 AM calcium signal, read-out: MOR pEC50 (CL95%) (converted); for MOR α ± SEM: efficacy (intrinsic activity), Emax relative to EM-2, mean ± SEM
T3 construct: expressed in transfected cells; host or cells: CHO cells (University of Ferrara), co-expressing Gαqi5
T3 sequence (P35372 whole entry): as above

human NK1 [3] = molecular target: T1, human NK1; assay: Radioligand binding assay, displacement of [3H][Sar9, Met(O2)11]SP; design: purchased PerkinElmer (Krakow, Poland); host or cells: CHO cell membranes; settings: displacement of [3H][Sar9, Met(O2)11]SP from membranes of CHO cells transfected with human NK1 receptor; 50 mM Tris/HCl pH 7.4, 0.5% BSA, peptidase inhibitors, 2 h at 25 °C; mean ± SEM, n ≥ 3; SEM
Experimental: The binding assay was also used to examine the affinity of the synthesized hybrids for NK1 in commercial membranes of CHO cells stably expressing human NK1.
as §2
(§5) Commercial membranes of CHO cells stably expressing either human ORs or NK1 receptor were used. […] Membranes were incubated in a 0.5 mL volume of 50 mM Tris/HCl (pH = 7.4), 0.5% bovine serum albumin (BSA), with a number of peptidase inhibitors (bacitracin, bestatin, captopril) and various concentrations of radioligands for 2 h at 25 °C.
(§6) The pharmacological terminology adopted in this paper is consistent with International Union of Basic and Clinical Pharmacology (IUPHAR) recommendations. Concentration–response curves were analyzed by nonlinear regression using Graph Pad Prism 6.0 (La Jolla, CA, USA). […] Concentration–response curves were fitted with the four-parameter logistic nonlinear regression model (1) Effect=baseline+Emax−baseline/1+10^logEC50−X·n where X is the agonist concentration and n is the Hill coefficient. Ligand efficacy was expressed as intrinsic activity (α) calculated as a ratio of the peptide Emax to the Emax of the standard agonist (Supplementary Materials, Figure S7). […] All statistical analyses were performed using Graph Pad Prism 6.0 (La Jolla, CA, USA). Differences between groups were analyzed with one-way ANOVA and a post hoc multiple comparison by the Student–Newman–Keuls test. A probability level of 0.05 or smaller was used to indicate statistical significance.

DOR = molecular target: T4, DOR (Homo sapiens, UniProt P41143); assay: Calcium mobilization functional assay, agonist mode; format: cell-based; settings: CHO cells co-expressing DOR and GαqG66Di5, n = 5; for DOR α ± SEM: efficacy (intrinsic activity), Emax relative to DPDPE, mean ± SEM; for EC50: read-out: DOR pEC50 (CL95%) (converted)
T4 construct: expressed in transfected cells; host or cells: CHO cells (University of Ferrara), co-expressing GαqG66Di5
T4 sequence (P41143 whole entry): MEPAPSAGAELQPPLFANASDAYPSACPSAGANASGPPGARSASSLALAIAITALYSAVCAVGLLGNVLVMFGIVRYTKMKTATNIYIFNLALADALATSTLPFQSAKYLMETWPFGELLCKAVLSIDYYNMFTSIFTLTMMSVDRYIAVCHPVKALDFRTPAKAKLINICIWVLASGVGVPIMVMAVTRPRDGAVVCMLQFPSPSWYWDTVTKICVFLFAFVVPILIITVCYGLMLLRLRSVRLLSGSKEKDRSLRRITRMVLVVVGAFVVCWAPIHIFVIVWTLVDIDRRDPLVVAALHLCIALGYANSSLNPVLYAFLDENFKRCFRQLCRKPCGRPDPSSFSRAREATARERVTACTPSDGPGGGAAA

[4] = molecular target: T5, human opioid receptor DOR (Homo sapiens, UniProt P41143); assay: Radioligand binding assay, displacement of [3H]deltorphin-2; settings: displacement of [3H]deltorphin-2 from membranes of CHO cells transfected with human DOR, 50 mM Tris/HCl pH 7.4, 0.5% BSA, peptidase inhibitors, 2 h at 25 °C, mean ± SEM, n ≥ 3
T5 construct: purchased PerkinElmer (Krakow, Poland); host or cells: CHO cell membranes
T5 sequence (P41143 whole entry): as above
Experimental: A radioligand binding assay was performed to determine the opioid receptor (OR) binding affinities of the novel analogs using commercially available membranes of Chinese hamster ovary cells (CHO) transfected with human recombinant ORs. […] Tyr-[D-Lys-Phe-Phe-Asp]NH2 (1) was used as a reference opioid compound.
as §2, §5, §6

[5] = molecular target: T6, human opioid receptor KOR (Homo sapiens, UniProt P41145); assay: Radioligand binding assay, displacement of [3H]U-69593; settings: displacement of [3H]U-69593 from membranes of CHO cells transfected with human KOR, 50 mM Tris/HCl pH 7.4, 0.5% BSA, peptidase inhibitors, 2 h at 25 °C, mean ± SEM, n ≥ 3
T6 construct: purchased PerkinElmer (Krakow, Poland); host or cells: CHO cell membranes
T6 sequence (P41145 whole entry): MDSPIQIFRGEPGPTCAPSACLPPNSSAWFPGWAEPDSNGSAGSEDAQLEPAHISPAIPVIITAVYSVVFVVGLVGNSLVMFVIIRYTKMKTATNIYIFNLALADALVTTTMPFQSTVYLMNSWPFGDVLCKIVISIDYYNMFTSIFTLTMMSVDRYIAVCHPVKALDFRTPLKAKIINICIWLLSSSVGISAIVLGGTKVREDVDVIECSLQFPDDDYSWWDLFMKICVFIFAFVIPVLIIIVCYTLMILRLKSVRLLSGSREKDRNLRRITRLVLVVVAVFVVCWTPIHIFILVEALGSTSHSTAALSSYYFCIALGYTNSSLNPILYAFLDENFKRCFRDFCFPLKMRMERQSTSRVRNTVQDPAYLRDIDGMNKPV
Experimental: as §1, §2, §3, §4

human KOR = molecular target: T7, human KOR (Homo sapiens, UniProt P41145); assay: Calcium mobilization functional assay, agonist mode; format: cell-based; settings: for KOR α ± SEM: efficacy (intrinsic activity), Emax relative to dynorphin A, mean ± SEM
T7 construct: expressed in transfected cells; host or cells: CHO cells (University of Ferrara), co-expressing Gαqi5
T7 sequence (P41145 whole entry): as above

human NK1 [6] = molecular target: T1, human NK1; assay: Calcium mobilization assay, inhibition response experiments against SP; format: cell-based; design: expressed in transfected cells; host or cells: CHO cells (gift of Prof. T. Costa, ISS, Rome)
Experimental: Following aspiration of the loading solution and a washing step, serial dilutions of peptide stock solutions were added.
as §6

[7] = CHO cells co-expressing human KOR and Gαqi5, Fluo-4 AM calcium signal, n = 5, read-out: KOR pEC50 (CL95%) (converted)
[8] = CHO cells co-expressing human KOR and Gαqi5, n = 5

Compound	effect per se on intracellular calcium levels (tested as an agonist) (human NK1 [1]; CHONK1 cells, up to 10 µM)	Ki [2] [nM]	EC50 (human MOR) [nM]	MOR α ± SEM (human MOR)	MOR α ± SEM (human MOR; SEM)	Ki (human NK1 [3]) [nM]	DOR pEC50 (CL95%) (DOR; Fluo-4 AM calcium signal)	DOR α ± SEM (DOR)	Ki [4] [nM]	Ki [5] [nM]	EC50 (human KOR; [7]) [nM]	KOR α ± SEM (human KOR; [8])	Kb (human NK1 [6]) [nM]	NK1 pEC50 (CL95%) (human NK1 [1]; CHO cells expressing human NK1 (CHONK1), Fluo-4 AM calcium signal, N = 5)	NK1 α ± SEM (human NK1 [1]; CHONK1 cells, N = 5)	EC50 (DOR; Fluo-4 AM calcium signal) [nM]	DOR α ± SEM (DOR; SEM)	EC50 (human KOR) [nM]	EC50 (human NK1 [1]) [nM]	NK1 α ± SEM (human NK1 [1]; CHONK1 cells, N = 5, SEM)
C[C@@H](O[C@H]1OCCN(Cc2n[nH]c(=O)[nH]2)[C@H]1c1ccc(F)cc1)c1cc(C(F)(F)F)cc(C(F)(F)F)c1 [aprepitant, reference compound]	did not modify																			
CCCC[C@H](NC(=O)[C@H](CC(C)C)NC(=O)[C@@H](Cc1c[nH]c2ccccc12)NC(=O)[C@H](Cc1ccccc1)NC(=O)[C@@H](Cc1c[nH]c2ccccc12)NC(=O)[C@@H]1CC(=O)NCCCC[C@@H](NC(=O)[C@@H](N)Cc2ccc(O)cc2)C(=O)N[C@@H](Cc2ccccc2)C(=O)N[C@@H](Cc2ccccc2)C(=O)N1)C(N)=O [compound 3, Tyr-[D-Lys-Phe-Phe-Asp]-D-Trp-Phe-D-Trp-Leu-Nle-NH2] (H-Y[dK]FFD[dW]F[dW]L[Nle]-NH2; lactam 2-5)		28.2 ± 1.45	174	0.72	0.72 ± 0.04	12.8 ± 0.92	Crc incomplete	Crc incomplete	213 ± 6.31	2.85 ± 0.44	3.55	1.05 ± 0.05	23.4	Inactive	Inactive					
CSCC[C@H](NC(=O)[C@H](CC(C)C)NC(=O)CNC(=O)[C@H](Cc1ccccc1)NC(=O)[C@H](Cc1ccccc1)NC(=O)[C@@H]1CC(=O)NCCCC[C@@H](NC(=O)[C@@H](N)Cc2ccc(O)cc2)C(=O)N[C@@H](Cc2ccccc2)C(=O)N[C@@H](Cc2ccccc2)C(=O)N1)C(N)=O [compound 5, Tyr-[D-Lys-Phe-Phe-Asp]-Phe-Phe-Gly-Leu-Met-NH2] (H-Y[dK]FFDFFGLM-NH2; lactam 2-5)		4.9 ± 0.34			0.86 ± 0.03	51.6 ± 4.2			96.6 ± 3.8	28.3 ± 1.71		0.64 ± 0.04				389	0.50 ± 0.01	67.6	15.8	1.11 ± 0.05
CSCC[C@H](NC(=O)[C@H](CC(C)C)NC(=O)CNC(=O)[C@H](Cc1ccccc1)NC(=O)[C@@H]1CC(=O)NCCCC[C@@H](NC(=O)[C@@H](N)Cc2ccc(O)cc2)C(=O)N[C@@H](Cc2ccccc2)C(=O)N[C@@H](Cc2ccccc2)C(=O)N1)C(N)=O [compound 6, Tyr-[D-Lys-Phe-Phe-Asp]-Phe-Gly-Leu-Met-NH2] (H-Y[dK]FFDFGLM-NH2; lactam 2-5)		2.98 ± 0.14	9.12		0.81 ± 0.05	2330 ± 189			28.7 ± 1.01	2.7 ± 0.12	4.68	0.92 ± 0.02				151	0.65 ± 0.05		776	1.03 ± 0.05
CSCC[C@H](NC(=O)[C@H](CC(C)C)NC(=O)CNC(=O)[C@@H]1CC(=O)NCCCC[C@@H](NC(=O)[C@@H](N)Cc2ccc(O)cc2)C(=O)N[C@@H](Cc2ccccc2)C(=O)N[C@@H](Cc2ccccc2)C(=O)N1)C(N)=O [compound 7, Tyr-[D-Lys-Phe-Phe-Asp]-Gly-Leu-Met-NH2] (H-Y[dK]FFDGLM-NH2; lactam 2-5)		1.14 ± 0.21	2.04		0.85 ± 0.05	8130 ± 724			113 ± 4.6	0.89 ± 0.04	1.58	1.06 ± 0.06				363	0.38 ± 0.04		2090	0.99 ± 0.08
